{"source": "paper PMC9322189", "about": "“Development of a Personalized Tumor Neoantigen Based Vaccine Formulation (FRAME-001) for Use in a Phase II Trial for the Treatment of Advanced Non-Small Cell Lung Cancer” (Pharmaceutics, 2022)", "type_in_all_cases": "physicochemical", "key": {"[1]": {"assay": "In-use stability of thawed aqueous peptide mixtures at room temperature, UPLC-MS", "settings": "4 h room temperature"}, "[2]": {"assay": "Filter experiment: peptide adsorption to the 0.22 µm sterilization filter, UPLC-MS", "settings": "in FRM001M1"}, "[3]": {"assay": "Release testing and long-term (frozen) stability of aqueous peptide mixtures (143 µg/mL per peptide in PBS 10 mM pH 7.0), UPLC-MS", "settings": "in FRM001-M1"}, "[4]": {"assay": "Freeze–thaw stability of model peptides, UPLC-MS", "settings": "150 µg/mL in PBS, two freeze–thaw cycles, fivefold on three consecutive days", "procedure": "A UPLC-MS system was used for the development and validation of the stability-indicating analytical method. The apparatus, column, flow rate, mobile phase A, mobile phase B, mass acquisition, and sample run time were: UPLC UltiMate 3000 RSLC System (Thermo Fisher Scientific, Waltham, MA, USA) coupled to a Q Exactive Orbitrap Mass Spectrometers (Thermo Fisher Scientific, Waltham, MA, USA); Acquity UPLC Peptide CSH C18, 130 Å, 1.7 µm, 2.1 mm × 150 mm (Waters Corporation, Milford, MA, USA); 0.40 mL/min; 0.013% ammonium formate and 0.1% formic acid dissolved in ultrapure water (pH 2.8); 0.013% ammonium formate and 0.1% formic acid dissolved in a mixture of 0.495:0.495:0.10 methanol, acetonitrile, and ultrapure water; masses scanned from 300.0–1900.0 m/z; 15 min; respectively. The mobile phase gradient started at t0 min with 98% of mobile phase A that was gradually adjusted to 40% at t9 min. At t9.1 min, mobile phase A was set at 2% till t11.1 min. At t11.2 min, mobile phase A was set at 98% until the end of the sample run time.\nFor each peptide, six stock concentrations in the range of 5–225 µg/mL dissolved in PBS were made. The linear relationship of the calibration curves was investigated by regression analysis. The linear correlation coefficient (R^2), goodness of fit, and lack of fit were analyzed. For the accuracy and precision tests, samples of 50 µg/mL, 150 µg/mL, and 225 µg/mL were analyzed in triplicate on three consecutive days to determine the closeness of agreement of the measurements compared to the analyzed concentrations (accuracy % bias) and repeated experiments (relative standard deviations (RSD)). For the sensitivity test, peptide samples at 5 µg/mL were analyzed in triplicate on three consecutive days and the signal-to-noise (S/N) ratio was calculated from representative chromatograms. For the freeze–thaw experiment, samples at 150 µg/mL for each of the three peptides were prepared and analyzed in fivefold on three consecutive days after each sample was subjected to two freeze–thaw cycles before the analysis was initiated."}}, "note": "No end group written: not given here.", "data": [{"sequence": "RHSPNGNGPRSQHHSLITTNTDPSCSCVT [FRM001P14, neoantigen peptide, in FRM001-M1]", "values": [{"measurement": "Peptide peak ratio", "setting": "[1]; in FRM001-M1, 2 w −25 °C", "result": 11.3, "unit": "%"}, {"measurement": "Peptide peak ratio", "setting": "[1]; in FRM001-M1, 4 w −25 °C", "result": 10.5, "unit": "%"}, {"measurement": "Peptide peak ratio", "setting": "[1]; in FRM001-M1, 8 w −25 °C", "result": 10.8, "unit": "%"}, {"measurement": "Peptide peak ratio", "setting": "[1]; in FRM001-M1, 8 w −80 °C", "result": 10.7, "unit": "%"}, {"measurement": "Peptide peak ratio", "setting": "[1]; in FRM001-M1, 12 w −25 °C", "result": 11.2, "unit": "%"}, {"measurement": "Peptide peak ratio", "setting": "[1]; in FRM001-M1, 12 w −80 °C", "result": 11.2, "unit": "%"}, {"measurement": "Peptide peak ratio", "setting": "[1]; in FRM001-M1, 16 w −25 °C", "result": 10.5, "unit": "%"}, {"measurement": "Peptide peak ratio", "setting": "[1]; in FRM001-M1, 16 w −80 °C", "result": 10.6, "unit": "%"}, {"measurement": "Peptide peak ratio", "setting": "[1]; in FRM001-M1, 32 w −25 °C", "result": 10.9, "unit": "%"}, {"measurement": "Peptide peak ratio", "setting": "[1]; in FRM001-M1, 32 w −80 °C", "result": 11.5, "unit": "%"}, {"measurement": "Peak ratio", "setting": "[2]; filtered (0.22 µm Millex GV)", "result": 10.8, "unit": "%"}, {"measurement": "Peak ratio", "setting": "[2]; unfiltered sample", "result": 10.9, "unit": "%"}, {"measurement": "Peptide peak ratio", "setting": "[3]; 2 w −25 °C", "result": 11.2, "unit": "%"}, {"measurement": "Peptide peak ratio", "setting": "[3]; 4 w −25 °C", "result": 10.5, "unit": "%"}, {"measurement": "Peptide peak ratio", "setting": "[3]; 8 w −25 °C", "result": 10.9, "unit": "%"}, {"measurement": "Peptide peak ratio", "setting": "[3]; 8 w −80 °C", "result": 10.8, "unit": "%"}, {"measurement": "Peptide peak ratio", "setting": "[3]; 12 w −25 °C", "result": 11.9, "unit": "%"}, {"measurement": "Peptide peak ratio", "setting": "[3]; 16 w −25 °C", "result": 10.1, "unit": "%"}, {"measurement": "Peptide peak ratio", "setting": "[3]; 16 w −80 °C", "result": 10.7, "unit": "%"}, {"measurement": "Peptide peak ratio", "setting": "[3]; 32 w −25 °C", "result": 7.5, "unit": "%"}, {"measurement": "Peptide peak ratio", "setting": "[3]; 32 w −80 °C", "result": 11.8, "unit": "%"}, {"measurement": "Peptide peak ratio", "setting": "[3]; t = 0 w, % area of peptide peak of sum of the six peptide peaks", "result": 10.8, "unit": "%"}]}, {"sequence": "SAMEKRGARETQQQRKRVFRGRGVNSAK [FRM001P11]", "values": [{"measurement": "Freeze–thaw stability, average bias", "setting": "[4]", "result": 1, "unit": "%"}]}, {"sequence": "SVTNTSLAHELWKVPLHLKTSLLRPAHLRD [FRM001P02]", "values": [{"measurement": "Freeze–thaw stability, average bias", "setting": "[4]", "result": 8, "unit": "%"}]}, {"sequence": "VTLEERLDKACEPGVDYDGQTGVIHFQPRG [FRM001P23]", "values": [{"measurement": "Freeze–thaw stability, average bias", "setting": "[4]", "result": 4, "unit": "%"}]}]}
